Data from patent US20260132118A1, “SALT FORMS OF R-MDMA AND METHODS USING THE SAME” (EmpathBio, Inc., priority 2022, published 2026).
Several values for one entry are separate records, joined by “and”; a condition that tells them apart may be missing. Equal entries are not always repeated.

What was measured:
[1] = background; cited from earlier work
[2] = Physical stability testing: stressing solids at elevated relative humidity or storage, monitored by XRPD; format: physicochemical
[3] = Dynamic Vapor Sorption (DVS); format: physicochemical; conditions: for DVS weight loss: desorption 95-6% RH; for DVS weight loss / DVS weight gain: 10% RH increments, nitrogen purge; for Solid form post-DVS (XRPD): post-DVS solids; for DVS weight gain: sorption 5-95% RH
Experimental: DVS data was collected on a Surface Measurement System DVS Intrinsic instrument. Samples were not dried prior to analysis. […] The equilibrium criterion used for analysis was less than 0.0100% weight change in 5 minutes with a maximum equilibration time of 3 hours. Data was not corrected for the initial moisture content of the samples.

[4] = Approximate aqueous solubility by aliquot addition; conditions: for Solubility: approximate aqueous solubility; for Observations (solubility experiment): aqueous
Source text: The small sample sizes, aliquot volumes, and kinetic nature of the solubility measurements contribute a degree of uncertainty to the reported values.

[5] = listed as O-methyl Mandelate Form A

CNC(C)Cc1ccc2c(c1)OCO2.Cl (centres unmarked) [MDMA hydrochloride salt]
Solubility in water (in words) [1]: soluble in water

CNC(C)Cc1ccc2c(c1)OCO2 (centres unmarked) [MDMA free base, 3,4-Methylenedioxymethamphetamine]
Solubility in water (in words) [1]: insoluble in water

CN[C@H](C)Cc1ccc2c(c1)OCO2.COC(C(=O)O)c1ccccc1 [O-Methyl Mandelate Form A]
Physical stability upon stressing at ~90% RH ([2]; 8 days): remained physically stable | DVS desorption behaviour / hysteresis ([3]; 5% to 95% RH): all mass gained in sorption was lost on desorption with minimal hysteresis | Hygroscopicity (in words) ([3]; DVS isotherm): low kinetic hygroscopicity | Kinetic hygroscopicity (sorption/desorption) ([3]; between 5% and 95% RH): 0.2% | DVS weight loss [3]: 0.21±0.02% | DVS weight loss [3, 5]: 0.21% | Solid form post-DVS (XRPD) [3]: remained unchanged | Solid form post-DVS (XRPD) [3, 5]: O-Methyl Mandelate Form A | DVS weight gain [3]: 0.18±0.02% and 0.18% | DVS weight gain [3, 5]: 0.18% | Solubility [4]: 26 ± 1 mg/mL and ~26 mg/mL | Observations (solubility experiment) [4]: clear solution

CN[C@H](C)Cc1ccc2c(c1)OCO2.O=[N+]([O-])O [Nitrate Form A]
Physical stability upon stressing at ~90% RH ([2]; 13 days): remained physically stable | Solubility [4]: 3 ± 1 mg/mL and 3 mg/mL | Observations (solubility experiment) [4]: clear solution
